Experimental data as given in patent publication US20030236294A1, “Compounds and methods for inducing apoptosis in proliferating cells” (priority 2002, published 2003).

Columns and labels:
PC-3 cells = experiment: Apoptosis induction in PC-3 cells (T1/2, time for 50% apoptotic death; cell viability / Cell Death Detection ELISA); conditions: for T½ (h) 50 μM: time required for eliciting 50% apoptotic death; for change in potency in apoptosis induction on replacement of —SO2NH2 with —CONH2: carboxamide versus sulfonamide counterpart, FIG. 10A; for classification as fast-acting or slow-acting apoptosis inducer: prostate cancer cells, FIG. 8
Method: Induction of apoptosis was also assessed by using a “Cell Death Detection ELISA” assay (Boehringer-Mannheim) following the manufacturer's instructions. This test is based on the quantitative determination of cytoplasmic histone-associated DNA fragments in the form of mono- and oligonucleosomes after induced apoptotic death. […] Both floating and adherent cells were collected, and cell lysates equivalent to 10^4 cells were used for the ELISA analysis.
Induction of apoptosis was also assessed by using a “Cell Death Detection ELISA” assay (Boehringer-Mannheim) by following the manufacturer's instructions. This test is based on the quantitative determination of cytoplasmic histone-associated DNA fragments in the form of mono- and oligonucleosomes after induced apoptotic death. […] Both floating and adherent cells were collected, and cell lysates equivalent to 10^4 cells were used in the ELISA.
Both adherent and floating cells were combined for the assessment of cell viability. Cell viability was determined by trypan blue exclusion.

COX-2 = target: T1, COX-2 (Homo sapiens, UniProt P35354); conditions: Table 1; read-out: IC50 (μM), COX-2 inhibition; cited from earlier work
T1 sequence (P35354 18-604): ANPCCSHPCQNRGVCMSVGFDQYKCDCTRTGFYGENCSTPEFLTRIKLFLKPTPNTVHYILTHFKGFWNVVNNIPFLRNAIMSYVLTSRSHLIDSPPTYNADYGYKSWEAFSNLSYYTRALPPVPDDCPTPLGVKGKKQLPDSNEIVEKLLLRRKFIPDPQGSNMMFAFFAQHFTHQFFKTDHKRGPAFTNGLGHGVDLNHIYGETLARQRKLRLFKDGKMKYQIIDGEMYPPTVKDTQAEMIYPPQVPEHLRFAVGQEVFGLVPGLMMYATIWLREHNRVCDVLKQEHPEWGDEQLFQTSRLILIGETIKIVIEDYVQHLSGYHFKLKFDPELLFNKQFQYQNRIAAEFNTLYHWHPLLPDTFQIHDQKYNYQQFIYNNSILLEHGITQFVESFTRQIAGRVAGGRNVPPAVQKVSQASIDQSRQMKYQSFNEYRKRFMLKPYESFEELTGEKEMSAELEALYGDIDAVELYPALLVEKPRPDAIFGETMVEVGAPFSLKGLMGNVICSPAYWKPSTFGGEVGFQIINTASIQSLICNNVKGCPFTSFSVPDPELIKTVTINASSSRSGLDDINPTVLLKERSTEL

[1] = system: Akt and ERK2 phosphorylation in PC-3 cells; experiment: Western blot of Akt and ERK2 phosphorylation status; type: cell-based, human
Method: Immunoblotting For western blot analysis, cells were washed in phosphate-buffered saline (PBS), resuspended in sodium dodecyl sulfate (SDS) gel-loading buffer consisting of 50 mM Tris-HCl, pH 6.8, 100 mM dithiothreitol, 2% SDS, 0.1% bromophenol blue, and 10% glycerol, sonicated with an ultrasonic sonicator for 5 seconds (Virsonic 300, 4.5 output), and boiled for 5 minutes. After a brief centrifugation, equivalent protein amounts (60-100 μg) from the soluble fractions were resolved in 10% SDS-polyacrylamide gels on a Minigel apparatus and transferred to a nitrocellulose membrane in a semidry transfer cell. The transblotted membrane was washed twice with Tris-buffered saline (TBS) containing 0.05% Tween 20 (TBST). After blocking with TBS containing 5% nonfat milk for 60 minutes, the membrane was incubated with the appropriate primary antibody (anti-COX-2, anti-Akt, anti-P-^473Ser Akt, anti-ERK, and anti-phospho-ERK antibodies diluted 1:1,000; anti-actin monoclonal antibody, diluted 1:5,000) in TBS-1% nonfat milk at 4° C. for 12 hours and washed twice with TBST. The membranes were probed with goat anti-rabbit IgG-horseradish peroxidase conjugates (diluted 1:5,000) for 1 hour at room temperature and washed twice with TBST. Bands were visualized by enhanced chemiluminescence.
Immunoblotting. […]

DU-145 cells = experiment: Apoptosis induction in DU-145 cells; type: cell-based, human; conditions: DU-145 (p53−/−), compared with PC-3; data not shown
LNCaP cells = experiment: Apoptosis induction in LNCaP cells; type: cell-based, human; conditions: LNCaP (p53+/+), compared with PC-3; data not shown
PGE2 production = experiment: Prostaglandin E2 (PGE2) immunoassay; type: cell-based, human; conditions: 50 μM; 1F2, 3D9, 7D9 cells and parental PC-3 cells; data not shown
Method: Culture medium was changed, and 24 hours later conditioned medium was collected to assay PGE2. Conditioned medium was centrifuged to remove particulate material, and then cells were collected by scraping to determine the protein concentration. PGE2 was assayed in 100 μL medium in triplicate according to the manufacturer's instruction (R&D Systems, Inc.; Minneapolis, Minn.). PGE2 data were normalized to protein content.

COc1ccc(C)c(OC)c1 [Compound 22b]
T½ (h) 50 μM (PC-3 cells; 50 μM, Table 2): >100 h

COc1ccc(OC)c(C)c1 [Compound 23b]
T½ (h) 50 μM (PC-3 cells; 50 μM, Table 2): >100 h

Cc1cc(Cl)sc1Cl [Compound 29b]
T½ (h) 50 μM (PC-3 cells; 50 μM, Table 2): >100 h

Cc1ccc(C)c(-c2cc(C(F)(F)F)nn2-c2ccc(S(N)(=O)=O)cc2)c1 [Example 7]
T½ (h) 50 μM (PC-3 cells; 50 μM, Table 1): 1 h | IC50 (COX-2): > 100 µM

Cc1ccco1 [Compound 26b]
T½ (h) 50 μM (PC-3 cells; 50 μM, Table 2): >100 h

4-[5-(2,4-Dimethylphenyl)-3-(trifluoromethyl)-1H-pyrazol-1-yl]benzene-carboxyamide [Compound 37b]
change in potency in apoptosis induction on replacement of —SO2NH2 with —CONH2 (PC-3 cells): no appreciable change

Cc1ccc(C)c(-c2cc(C(F)(F)F)nn2-c2ccc(S(N)(=O)=O)cc2)c1 [compound 7a, 4-[5-(2,5-dimethylphenyl)-3-(trifluoromethyl)-1H-pyrazol-1-yl]benzenesulfonamide]
time to 50% decrease in cell viability (PC-3 cells; 50 μM, PC-3 cells): within an hour

Cc1ccc(-c2cc(C(F)(F)F)nn2-c2ccc(S(N)(=O)=O)cc2)cc1 [celecoxib, 4-[5-(4-methylphenyl)-3-(trifluoromethyl)-1H-pyrazol-1-yl]benzenesulfonamide, reference compound]
phosphorylation of Akt and ERK2 ([1]; all four antisense COX-2 clones): decreased phosphorylation of Akt and ERK2 | time to 50% decrease in cell viability (PC-3 cells; 50 μM, PC-3 cells): 2 h | T½ (h) 50 μM (PC-3 cells; 50 μM, Table 2): 2 h | susceptibility to apoptosis induction (DU-145 cells): susceptibility identical to that of PC-3 cells | susceptibility to apoptosis induction (LNCaP cells): susceptibility identical to that of PC-3 cells

Cc1ccc(-c2cc(C(F)(F)F)nn2-c2ccc(S(N)(=O)=O)cc2)c(C)c1 [Example 9]
T½ (h) 50 μM (PC-3 cells; 50 μM, Table 1): 2 h

Cc1cccs1 [Compound 27b]
T½ (h) 50 μM (PC-3 cells; 50 μM, Table 2): >100 h

Cc1ccc(C#N)cc1 [Compound 16b]
T½ (h) 50 μM (PC-3 cells; 50 μM, Table 2): >100 h

NS(=O)(=O)c1ccc(C2=C(c3ccc(Cl)c(Cl)c3)COC2=O)cc1 [Compound 49b, 3-(4-sulfamoylphenyl)-4-(3′,4′-dichlorophenyl)-2(5H)-furanone]
T1/2 at 50 μM (PC-3 cells; 50 μM, PC-3 cells): 15 h

CS(=O)(=O)c1ccc(C2=C(c3ccccc3)C(=O)OC2)cc1 [rofecoxib, reference compound]
classification as fast-acting or slow-acting apoptosis inducer (PC-3 cells): slow-acting apoptosis inducer | PGE2 production (PGE2 production): reduced to the same extent

4-[5-(3,4-Dichlorophenyl)-3-(trifluoromethyl)-1H-pyrazol-1-yl]benzene-carboxyamide [Compound 33b]
change in potency in apoptosis induction on replacement of —SO2NH2 with —CONH2 (PC-3 cells): no appreciable change

CS(=O)(=O)Nc1ccc([N+](=O)[O-])cc1OC1CCCCC1 [NS398, reference compound]
classification as fast-acting or slow-acting apoptosis inducer (PC-3 cells): slow-acting apoptosis inducer | PGE2 production (PGE2 production): reduced to the same extent

4-[5-(2,5-Dichlorophenyl)-3-(trifluoromethyl)-1H-pyrazol-1-yl]benzene-carboxyamide [Compound 32b]
change in potency in apoptosis induction on replacement of —SO2NH2 with —CONH2 (PC-3 cells): no appreciable change

4-[5-(2,4-Dichlorophenyl)-3-(trifluoromethyl)-1H-pyrazol-1-yl]benzene-carboxyamide [Compound 31b]
change in potency in apoptosis induction on replacement of —SO2NH2 with —CONH2 (PC-3 cells): no appreciable change

NS(=O)(=O)c1ccc(-n2nc(C(F)(F)F)cc2-c2cc(Cl)ccc2Cl)cc1 [Example 5]
T½ (h) 50 μM (PC-3 cells; 50 μM, Table 1): 3 h

NS(=O)(=O)c1ccc(-n2nc(C(F)(F)F)cc2-c2ccc(Cl)cc2)cc1 [1a, 4-[5-(4-Chlorophenyl)-3-(trifluoromethyl)-1H-pyrazol-1-yl]benzenesulfonamide]
phosphorylation status of Akt and ERK2 ([1]; PC-3 cells): concurrent dephosphorylation of Akt and ERK2 | susceptibility to apoptosis induction (DU-145 cells): susceptibility identical to that of PC-3 cells | susceptibility to apoptosis induction (LNCaP cells): susceptibility identical to that of PC-3 cells

Cc1ccc(F)cc1F [Compound 4b]
T½ (h) 50 μM (PC-3 cells; 50 μM, Table 2): >100 h

Fc1ccc(F)cc1 [Compound 5b]
T½ (h) 50 μM (PC-3 cells; 50 μM, Table 2): >100 h

Cc1ccc(-c2ccnn2-c2ccc(S(N)(=O)=O)cc2)cc1 [Compound 40b]
activity in eliciting apoptosis in PC-3 cells (in words) (PC-3 cells; PC-3 cells): loss of high potency

NS(=O)(=O)c1ccc(-n2nc(C(F)(F)F)cc2-c2ccc(Cl)cc2Cl)cc1 [Example 12]
T½ (h) 50 μM (PC-3 cells; 50 μM, Table 1): 2 h

Cc1ccc(C)c(C)c1 [Compound 21b]
T½ (h) 50 μM (PC-3 cells; 50 μM, Table 2): 2 h

NS(=O)(=O)c1ccc(-n2nc(C(F)(F)F)cc2-c2ccccc2Cl)cc1 [Example 13]
T½ (h) 50 μM (PC-3 cells; 50 μM, Table 1): 4 h

CS(=O)(=O)c1ccc(C2=C(c3ccccc3)COC2=O)cc1 [Compound 47b, 3-(4′-methylsulfonylphenyl)-4-phenyl-2(5H)-furanone]
activity in eliciting apoptosis in PC-3 cells (in words) (PC-3 cells; PC-3 cells): poor activity
